Test results published in US20250360130A1, “METHODS OF TREATING INDOLENT SYSTEMIC MASTOCYTOSIS” (Telios Pharma Inc., priority 2024, published 2025).

How the values were obtained:
human mast cells [1] = experiment: Calcium flux assay in antigen-stimulated human mast cells; assay type: cell-based; settings: 2 hours treatment, NP-BSA stimulation
Method: (§1) Human mast cells were derived from bone marrow CD34+ cells from six healthy donors for up to eight weeks by culturing CD34+ cells in StemSpan SFEM II (Stem Cell Technologies) supplemented with stem cell factor (SCF; 100 ng/mL; R&D System), IL-6 (R&D Systems), IL-3 (R&D Systems) and 1% penicillin/streptomycin (P/S; Gibco) for the first 10 days and in StemSpan SFEM II supplemented with SCF and IL-6 and 1% P/S for the remaining time in culture. […] Supernatant was collected and histamine levels were measured using a Histamine ELISA kit (Eagle Biosciences). […] Percent of activated mast cells was calculated as number of activated mast cells over the total number of mast cells.
Compound 128 Inhibits Calcium Signaling in Human Mast Cells. […] The median fluorescence intensity of cytosolic calcium was measured across the stimulation time period and graphed to represent the calcium influx profile. The area under the curve (AUC) of the calcium influx profile was calculated and normalized as a percent of stimulated control. […]

ISM-like mast cells = experiment: Antigen-induced degranulation (CD63 and histamine) in ISM-like mast cells; assay type: cell-based, human; settings: ISM-like (+SCF) mast cells, two hours treatment prior to stimulation
Method: as §1
Human mast cells were differentiated from bone marrow CD34+ cells from six healthy donors, cultured and sensitized as set forth in Example 4. […] The median fluorescence intensity of phosphorylated BTK was measured. CD63 and histamine levels in these cells were measured and percent activated mast cells were calculated as set forth in Example 4. The percent of stimulated control for pBTK, activated mast cells (CD63+) and histamine levels was calculated. […]

human mast cells [2] = experiment: Antigen-induced cytokine production in ISM-like and healthy mast cells; assay type: cell-based; settings: two hours treatment, antigen four hours
Method: as §1
Human mast cells were differentiated from bone marrow CD34+ cells from two healthy donors, cultured and sensitized in ISM-like and healthy mast cell conditions as set forth in Example 4, treated with Compound 128 for two hours and stimulated with antigen for four hours. Supernatant was collected and cytokine levels were measured using the BD Cytometric Bead Array (CBA) human soluble protein master buffer kit (Becton Dickinson) and BD CBA human soluble protein flex sets for IL-8, MCP-1, MIP-1a, IL-13 and IL-10 (Becton Dickinson). […]

BTK [3] = target: T1, BTK (Homo sapiens, UniProt Q06187); experiment: BTK phosphorylation in mast cells (FIG. 19); assay type: cell-based; set-up: endogenous in cells; settings: correlating with calcium signaling, CD63, CD203c, histamine release
BTK [4] = target: T1, BTK; experiment: MRGPRX2-induced BTK phosphorylation in ISM-like mast cells; assay type: cell-based; set-up: Human mast cells were differentiated from bone marrow CD34+ cells from six healthy donors; endogenous in cells; host or cells: human mast cells differentiated from bone marrow CD34+ cells of healthy donors, cultured with SCF; settings: 0.1 μM, C48/80 stimulation
Method: Human mast cells were differentiated from bone marrow CD34+ cells from four healthy donors and were cultured in the presence of SCF (100 ng/mL) to mimic mast cells in ISM and treated with Compound 128 for two hours prior to stimulation. Mas-related G protein-coupled receptor (MRGPRX2) agonists, Compound 48/80 (C48/80; a product of N-methyl-p-methoxyphenethylamine with formaldehyde) or Substance P (SP) were used to activate the MRGPRX2 pathway. For pBTK test, cells were stimulated with C48/80 (10 μg/mL) for ten minutes at 37° C. and cells were stained. The median fluorescence intensity of phosphorylated BTK was measured. The fold change over unstimulated control for pBTK was calculated. For cytokine test, cells were stimulated with C48/80 (10 μg/mL) or SP (30 μM) for four hours at 37° C. Supernatant was collected and cytokine levels were measured using the BD Cytometric Bead Array (CBA) human soluble protein master buffer kit (Becton Dickinson) and BD CBA human soluble protein flex sets for IL-8, MCP-1, GM-CSF and IL-13 (Becton Dickinson). Cytokine levels were measured and normalized to percent of control, with 0% representing the level of the unstimulated control.

T1 sequence (Q06187 whole entry): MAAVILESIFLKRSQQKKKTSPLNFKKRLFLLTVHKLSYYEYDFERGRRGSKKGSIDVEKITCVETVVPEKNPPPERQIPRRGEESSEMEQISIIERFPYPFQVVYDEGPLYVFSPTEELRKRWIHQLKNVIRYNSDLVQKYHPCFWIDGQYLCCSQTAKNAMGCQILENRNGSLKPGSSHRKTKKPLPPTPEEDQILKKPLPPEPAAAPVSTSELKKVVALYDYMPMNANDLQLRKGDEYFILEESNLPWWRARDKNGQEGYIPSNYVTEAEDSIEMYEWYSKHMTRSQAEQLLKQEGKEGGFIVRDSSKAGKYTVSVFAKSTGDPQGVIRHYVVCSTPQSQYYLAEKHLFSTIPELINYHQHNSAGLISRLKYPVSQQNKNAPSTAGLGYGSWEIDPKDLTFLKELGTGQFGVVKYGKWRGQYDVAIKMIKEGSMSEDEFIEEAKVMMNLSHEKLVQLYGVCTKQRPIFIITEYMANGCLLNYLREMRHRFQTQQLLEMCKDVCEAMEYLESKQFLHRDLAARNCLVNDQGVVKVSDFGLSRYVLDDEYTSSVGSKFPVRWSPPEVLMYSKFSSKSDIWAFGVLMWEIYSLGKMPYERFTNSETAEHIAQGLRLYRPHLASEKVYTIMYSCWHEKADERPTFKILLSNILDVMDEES

Structure (SMILES): C=CC(=O)N1CCC(F)(CNc2ncnc(N)c2-c2ccc(Oc3ccccc3)cc2)CC1 [Compound 128, 1-(4-(((6-amino-5-(4-phenoxyphenyl)pyrimidin-4-yl)amino)methyl)-4-fluoropiperidin-1-yl)prop-2-en-1-one]
- calcium influx, percent of stimulated control (human mast cells [1]; ISM-like (+SCF) mast cells): less than 7%
- calcium influx, percent of stimulated control (human mast cells [1]; healthy (−SCF) mast cells): < 3%
- IgE-mediated degranulation (CD63 and histamine) (ISM-like mast cells): potently inhibits
- IgE-mediated cytokine production (IL-8, MCP-1, MIP-1a, IL-13, IL-10) (human mast cells [2]): inhibited
- inhibition of BTK phosphorylation in mast cells (BTK [3]): high potency
- MRGPRX2-induced BTK phosphorylation (BTK [4]): inhibited
